Test system: 3T3-L1 cells
Assay: Induction of adipocyte differentiation in 3T3-L1 cells, Oil Red O staining
Type: cell-based
Settings: 10 μM LS-102 added at induction of differentiation (IBMX, dexamethasone, insulin) and again at the medium change, DMSO control, microscope (FIG. 5)
Experimental: 3T3-L1 cells were cultured for 3 days after reaching confluence in DMEM (10% FBS, High Glucose). Differentiation was induced by adding 500 μM IBMX, 1 μM dexamethasone and 5 μg/ml of insulin. 10 μM LS-102 (synoviolin ubiquitination activity inhibitor) or DMSO were added at the same time. After culturing for 3 days, the medium was replaced with medium containing 4 μg/ml of insulin followed by the addition of 10 μM LS-102 or DMSO. After again culturing for 3 days, the medium was replaced with DMEM (10% FES, High Glucose) followed by additionally culturing for 3 days. With respect to siRNA, 200 pmol of siRNA Syno770 was introduced using Lipofectamine 2000 two days prior to inducing differentiation.
After washing the 3T3-L1 cells with PBS(−), the cells were fixed with 10% formalin. The cells were then washed with PBS(−) and transferred to 60% isopropanol. The cells were stained for 20 minutes with 18 mg/ml of Oil Red O/Isopropanol and then washed with 60% isopropanol and PBS(−) followed by observing with a microscope.

In the case of `CCNCCN(CC)c1nc(Nc2ccc3ncoc3c2)nc(N[C@@H](C)C2CCCCC2)n1` [LI102], the “number of differentiated adipocytes in comparison with the control” value is reported as “the number of differentiated adipocytes was lower in comparison with the control”.

Source: US20140127705A1, “METHOD FOR SCREENING SUBSTANCES HAVING WEIGHT-REGULATING ACTION” (priority 2011, published 2014)
